Assay results published in US20050234531A1, “Method to treat age-related macular degeneration” (priority 2001, published 2005).

Tested on: age-related macular degeneration (AMD)
Test: PDT with verteporfin combined with scatter threshold laser coagulation therapy in eighteen patients with AMD or early stage AMD
Assay type: in vivo
Description: Eighteen patients ranging in age from 50-80 years of age, and either previously diagnosed with AMD or with early stage AMD have been treated using the inventive method. All of these patients experienced at least some loss of vision pre-treatment.
For PDT, verteporfin was the photosensitive agent and was administered intravenously at a dose of 1-2 mg/kg. Verteporfin was activated using a coherent laser with the red beam (krypton) at a wavelength of 640 nm. For laser coagulation therapy, the spot size was 200 μm and the duration was 0.4 seconds. The number of spots applied was between 150 and 350. The interval between PDT and laser coagulation therapy was 5 minutes to 24 hours.

verteporfin
Patients with improved visual acuity, as assessed by accurate reading of a standard vision chart (verteporfin 1-2 mg/kg intravenously, activated at 640 nm, plus laser coagulation therapy 5 minutes to 24 hours apart, within six to eight weeks post-treatment, 18 patients): fifty
Incidence of the need for retreatment (verteporfin PDT plus laser coagulation therapy, entire patient population treated): zero
Patients whose vision remained stable, assessed by no further loss of visual acuity (verteporfin PDT plus laser coagulation therapy, over six to nine months, 18 patients): fifty
Cases of laser-induced neovascularizations (verteporfin PDT plus laser coagulation therapy, patients receiving the inventive treatment): no cases
